According to PubChem BioAssay (NCI):
Where “and” joins values, the source holds several entries; their conditions need not be identical. Equal values may be shown once.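 Values below derive from 48-hour exposures of cells grown in 96-well plates, with endpoints linearly interpolated between the two concentrations bracketing the appropriate inhibition level. GI50: concentration for 50% inhibition of growth. TGI: total growth inhibition.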

Tests used:
Experiment in all cases: growth of human tumour cells (NCI), 48 h
HT29 colon = test system: HT29 colon
SK-MEL-28 melanoma = test system: SK-MEL-28 melanoma
UO-31 renal = test system: UO-31 renal
NCI-H460 lung = test system: NCI-H460 lung
OVCAR-4 ovarian = test system: OVCAR-4 ovarian
SF-268 CNS = test system: SF-268 CNS
KM12 colon = test system: KM12 colon
M14 melanoma = test system: M14 melanoma
SF-539 CNS = test system: SF-539 CNS
UACC-62 melanoma = test system: UACC-62 melanoma

Structure (SMILES) | TGI (HT29 colon) [µM] | TGI (SK-MEL-28 melanoma) [µM] | GI50 (UO-31 renal) | TGI (UO-31 renal) | GI50 (NCI-H460 lung) | TGI (NCI-H460 lung) | GI50 (OVCAR-4 ovarian) | TGI (OVCAR-4 ovarian) | GI50 (SF-268 CNS) | TGI (SF-268 CNS) [µM] | GI50 (KM12 colon) | TGI (KM12 colon) | TGI (M14 melanoma) [µM] | TGI (SF-539 CNS) | TGI (UACC-62 melanoma) | GI50 (HT29 colon) [µM] | GI50 (SK-MEL-28 melanoma) | GI50 (M14 melanoma) | GI50 (SF-539 CNS) [µM] | GI50 (UACC-62 melanoma)
COC(=O)CCC(C)[C@H]1CCC2C3C(C[C@H](OC(C)=O)[C@@]21C)[C@@]1(C)CCC2(C[C@H]1C[C@H]3OC(C)=O)OOC1(CCC(C)CC1)OO2 (stereo partly specified) | > 100 | > 100 | 4.13 µM and 11.2 µM | 17.8 µM and 36.4 µM | 4.22 µM and 18.7 µM | > 100 µM | 3.75 µM and 18.2 µM | 49.5 µM and > 100 µM | 8.26 µM and 32.8 µM | > 100 | 4.03 µM and 38.7 µM | > 100 µM | > 100 | > 100 µM | > 100 µM | – | – | – | – | –
Cc1onc(-c2c(F)cccc2Cl)c1-c1ncc(-c2ccc(Cl)cc2)o1 | > 100 | > 100 | 5.47 µM | > 100 µM | 3.18 µM | > 100 µM | 13.9 µM | > 100 µM | 7.3 µM | > 100 | 5.59 µM | > 100 µM | > 100 | > 100 µM | > 100 µM | 3.89 | 6.26 µM | 5.67 µM | 5.07 | 2.7 µM
CN1C(OCc2ccccc2)c2c(ccc3c2OCO3)C2C=Cc3cc4c(cc3C21)OCO4 (stereo unspecified) | 1.47 | 1.63 | – | 2.59 µM | – | 3.09 µM | – | 3.06 µM | – | 1.58 | – | 2.22 µM | 2.1 | 2.99 µM | 2.46 µM | – | – | – | – | –
COc1c(C2=NC(C(C)C)CO2)ccc2ccccc12 (stereo unspecified) | > 100 | > 100 | – | > 100 µM | – | > 100 µM | – | > 100 µM | – | > 100 | – | > 100 µM | > 100 | > 100 µM | > 100 µM | – | – | – | – | –
COc1ccc(-c2nn(-c3ccc(NC(=O)c4ccc(Cl)c(C(F)(F)F)c4)cc3)cc2-c2ccncc2)cc1Cl | 1.96 | > 100 | 0.566 µM | > 24.7 µM | 0.441 µM | > 100 µM | 2.48 µM | > 100 µM | 0.896 µM | > 100 | 0.514 µM | > 100 µM | 3.08 | – | 5.02 µM | 0.337 | 2.85 µM | 0.471 µM | 0.5 | 1.07 µM
O=c1oc2cc(N=Cc3ccccc3Cl)ccc2c2ccccc12 | > 100 | > 100 | – | > 100 µM | – | > 100 µM | – | > 100 µM | – | > 100 | – | > 100 µM | > 100 | > 100 µM | > 100 µM | – | – | – | – | –
COc1ccc(C[n+]2c3ccccc3n3c4ccc(N)cc4ccc32)c(OC)c1OC | 33.2 | 5.56 | 40.1 µM | > 100 µM | 3.54 µM | 18.2 µM | 2.27 µM | 31.9 µM | 2.42 µM | 15.5 | 2.41 µM | 13.7 µM | 33.3 | 15.2 µM | 10.9 µM | 4.63 | 1.89 µM | 14.9 µM | 2.89 | 2.62 µM
N#CC(C#N)=Cc1c(-c2ccccc2)[nH]c2ccccc12 | > 53.9 | > 45.8 | 11 µM | > 75.6 µM | 2.02 µM | > 39.8 µM | 5.22 µM | > 100 µM | 8.81 µM | > 46.2 | 0.66 µM | 27.5 µM | > 56.6 | 9.12 µM | > 46.5 µM | 0.526 | 3.57 µM | 1.88 µM | 2.1 | 2.24 µM
NC(C/[N+]([O-])=N/O)C(=O)O (stereo unspecified) | > 395 | > 500 | 5.55 µM and 2.44 µM and 2.13 µM | > 100 µM and 235 µM | – | > 78.3 µM and > 100 µM and 223 µM | 23.6 µM and > 100 µM and 21.2 µM | > 449 µM | 6.55 µM and 2.88 µM and 5.56 µM | > 482 | 0.543 µM | 31.1 µM and > 100 µM and 144 µM | > 459 | > 100 µM and 366 µM | > 100 µM and 81.9 µM | – | > 47.8 µM and > 100 µM and 24.5 µM | 28.9 µM and 37.5 µM and 24.4 µM | – | 6.05 µM and 7.49 µM and 3.12 µM
N=Nc1c(OC(=O)Nc2ccccc2)[nH]c2ccccc12 | 96.2 | > 100 | – | 25.6 µM | – | 25.7 µM | – | 30.7 µM | – | > 100 | – | 29.3 µM | 37.9 | 37.4 µM | 35.5 µM | – | – | – | – | –
CC(=O)OCCOCNC(=S)N/N=C/c1ccc2ccccc2n1 | > 100 | > 100 | – | > 100 µM | – | > 100 µM | – | > 100 µM | – | > 100 | – | > 100 µM | > 100 | > 100 µM | 47.6 µM | – | – | – | – | –
Cc1c(C(=O)CC(=O)C(=O)Nc2c(C(C)C)cccc2C(C)C)[n+](=O)c2ccccc2n1[O-] | 13.9 | 48.3 | – | 31.4 µM | – | 7.02 µM | – | 15.5 µM | – | 25.2 | – | 15.7 µM | 10.8 | 17.5 µM | 22.3 µM | – | – | – | – | –
O=C1c2ccccc2C(=O)C2C1C1C(=O)c3ccccc3C(=O)C21 (stereo unspecified) | > 100 | > 100 | – | > 100 µM | – | > 100 µM | – | > 100 µM | – | > 100 | – | > 100 µM | > 100 | > 100 µM | > 100 µM | – | – | – | – | –
[C-]#[O+].[Cl][Sn]([Cl])[Cl].[Cl][Sn]([Cl])[Cl].[Pt].c1ccc([PH+](c2ccccc2)c2ccccc2)cc1.c1ccc([PH+](c2ccccc2)c2ccccc2)cc1 | > 100 | > 100 | > 100 µM | > 100 µM | 33.8 µM | > 100 µM | 56.1 µM | > 100 µM | 23 µM | 51.1 | 42.3 µM | > 100 µM | > 100 | > 100 µM | > 100 µM | > 100 | 69.5 µM | 30.7 µM | 92.3 | 27.7 µM
COc1cc(-c2nn(-c3ccc(NC(=O)Nc4ccc(Cl)c(Cl)c4)cc3)cc2-c2ccncc2)ccc1Cl | 17.1 | 17.9 | 2.74 µM | 11.3 µM | 2.42 µM | 5.64 µM | 4.41 µM | > 100 µM | 4.57 µM | > 100 | 2.62 µM | 7.41 µM | 6.87 | 33.6 µM | 13.3 µM | 3.52 | 3.94 µM | 2.56 µM | 2.89 | 3.35 µM
O=C1c2cccc3cc([N+](=O)[O-])cc(c23)C(=O)N1NC1=NCCN1 | > 100 | > 100 | – | > 100 µM | – | > 100 µM | – | > 100 µM | – | > 100 | – | > 100 µM | > 100 | > 100 µM | > 100 µM | – | – | – | – | –
